Like-named read-outs stand apart in the source and are kept apart here.
Experiment: in vitro
Type: in vitro ADME, human
Procedure: For several compounds only human liver microsomal stability was tested. […] The microsomal assays were carried out with and without the addition of NADPH at a final concentration of 1 mM. For negative control samples, NADPH reagent was not added. […] Note that compounds undergo only Phase I metabolism in liver microsomes.

[1] = human liver microsomes 0.5 mg/mL, with NADPH, compound 0.5 μM, 37° C., read-out: Human Liver Microsomal Stability t1/2
[2] = human liver microsomes 0.5 mg/mL, with NADPH, compound 0.5 μM, read-out: Human Liver Microsomal Stability CLint (uL/min/mg liver) (converted)
[3] = human liver microsomes, no NADPH, compound 0.5 μM

Structure (SMILES): CNCC(=O)O[C@]1(C)CC[C@@]2(C)[C@@H](CC[C@@H]3[C@@H]2CC[C@]2(C)[C@@H](C(C)=O)CC[C@@H]32)C1 [Compound 114]
- half-life [1]: 277 min
- microsomal CLint [2]: 5 µL/min/mg
- Human Liver Microsomal Stability no NADPH, % remain 1 h [3]: 99.5%

Structure (SMILES): COCCOCC(=O)OCC(=O)O[C@]1(C)CC[C@@]2(C)[C@@H](CC[C@@H]3[C@@H]2CC[C@]2(C)[C@@H](C(C)=O)CC[C@@H]32)C1 [Compound 204]
- half-life [1]: 4.12 min
- microsomal CLint [2]: 337 µL/min/mg
- Human Liver Microsomal Stability no NADPH, % remain 1 h [3]: 10.5%

Structure (SMILES): CC(=O)[C@H]1CC[C@H]2[C@@H]3CC[C@H]4C[C@](C)(OC(=O)CN[C@@H](C)C(=O)O)CC[C@]4(C)[C@H]3CC[C@]12C [Compound 131]
- Comments: production of GNX (ganaxolone) in human liver microsomes (human liver microsomes): In human no GNX produced
- half-life [1]: 207 min
- microsomal CLint [2]: 6.7 µL/min/mg
- Human Liver Microsomal Stability no NADPH, % remain 1 h [3]: 82%

Structure (SMILES): CC(=O)[C@H]1CC[C@H]2[C@@H]3CC[C@H]4C[C@](C)(OC(=O)CN5CCC[C@H]5C(=O)O)CC[C@]4(C)[C@H]3CC[C@]12C [Compound 137]
- Comments: production of GNX (ganaxolone) in human liver microsomes (human liver microsomes): In human no GNX produced
- half-life [1]: 908 min
- microsomal CLint [2]: 1.52 µL/min/mg
- Human Liver Microsomal Stability no NADPH, % remain 1 h [3]: 95%

Structure (SMILES): CC(=O)[C@H]1CC[C@H]2[C@@H]3CC[C@H]4C[C@](C)(OC(=O)CNC(C)(C)COC(=O)CN5CCOCC5)CC[C@]4(C)[C@H]3CC[C@]12C [Compound 136]
- half-life [1]: 3 min
- microsomal CLint [2]: 457 µL/min/mg
- Human Liver Microsomal Stability no NADPH, % remain 1 h [3]: 0.5%

Structure (SMILES): CC(=O)[C@H]1CC[C@H]2[C@@H]3CC[C@H]4C[C@](C)(OC(=O)CN(C)C(=O)CN5CCOCC5)CC[C@]4(C)[C@H]3CC[C@]12C [Compound 115]
- Comments: production of GNX (ganaxolone) in human liver microsomes (human liver microsomes): In human no GNX produced
- half-life [1]: 13.8 min
- microsomal CLint [2]: 100 µL/min/mg
- Human Liver Microsomal Stability no NADPH, % remain 1 h [3]: 99%

Structure (SMILES): CC(=O)[C@H]1CC[C@H]2[C@@H]3CC[C@H]4C[C@](C)(OC(=O)CSC(C)(C)COC(=O)CN5CCOCC5)CC[C@]4(C)[C@H]3CC[C@]12C [Compound 310]
- Comments: production of GNX (ganaxolone) in human liver microsomes (human liver microsomes): In human no GNX produced
- half-life [1]: 2.9 min
- microsomal CLint [2]: 474 µL/min/mg
- Human Liver Microsomal Stability no NADPH, % remain 1 h [3]: 1%

Structure (SMILES): CC(=O)[C@H]1CC[C@H]2[C@@H]3CC[C@H]4C[C@](C)(OC(=O)COC(=O)CO)CC[C@]4(C)[C@H]3CC[C@]12C [Compound 247]
- half-life [1]: 2.01 min
- microsomal CLint [2]: 689 µL/min/mg
- Human Liver Microsomal Stability no NADPH, % remain 1 h [3]: 1.1%

Structure (SMILES): CC(=O)[C@H]1CC[C@H]2[C@@H]3CC[C@H]4C[C@](C)(OC(=O)CSCCN)CC[C@]4(C)[C@H]3CC[C@]12C [Compound 302]
- Comments: production of GNX (ganaxolone) in human liver microsomes (human liver microsomes): In human GNX not produced
- half-life (human, microsomes): 248 min
- microsomal CLint (human, microsomes): 5.59 µL/min/mg
- Human Liver Microsomal Stability no NADPH, % remain 1 h (human, microsomes): 99%

Structure (SMILES): CC(=O)[C@H]1CC[C@H]2[C@@H]3CC[C@H]4C[C@](C)(OC(=O)CSC(C)(C)C(=O)NCCN(C)C)CC[C@]4(C)[C@H]3CC[C@]12C [Compound 307]
- Comments: production of GNX (ganaxolone) in human liver microsomes (human liver microsomes): In human no GNX produced
- half-life [1]: 391 min
- microsomal CLint [2]: 3.55 µL/min/mg
- Human Liver Microsomal Stability no NADPH, % remain 1 h [3]: 99%

Structure (SMILES): CC(=O)COCN(CCO)CC(=O)OC(C)(C)C(=O)OCC(=O)O[C@]1(C)CC[C@@]2(C)[C@@H](CC[C@@H]3[C@@H]2CC[C@]2(C)[C@@H](C(C)=O)CC[C@@H]32)C1 [Compound 230]
- half-life [1]: 2.94 min
- microsomal CLint [2]: 471 µL/min/mg
- Human Liver Microsomal Stability no NADPH, % remain 1 h [3]: 1%

Structure (SMILES): CC(=O)[C@H]1CC[C@H]2[C@@H]3CC[C@H]4C[C@](C)(OC(=O)COC(=O)C(C)(C)OC(=O)CN(C)CCOC(=O)CN)CC[C@]4(C)[C@H]3CC[C@]12C [Compound 241]
- half-life (human, microsomes): 3.9 min
- microsomal CLint (human, microsomes): 356 µL/min/mg
- Human Liver Microsomal Stability no NADPH, % remain 1 h (human, microsomes): 3.68%

Structure (SMILES): CC(=O)[C@H]1CC[C@H]2[C@@H]3CC[C@H]4C[C@](C)(OC(=O)C5CC5C(=O)O)CC[C@]4(C)[C@H]3CC[C@]12C (some centres unmarked) [Compound 408]
- Comments: production of GNX (ganaxolone) in human liver microsomes (human liver microsomes): In human no GNX produced
- half-life [1]: 143 min
- microsomal CLint [2]: 9.72 µL/min/mg
- Human Liver Microsomal Stability no NADPH, % remain 1 h [3]: 76%

Structure (SMILES): CC(=O)[C@H]1CC[C@H]2[C@@H]3CC[C@H]4C[C@](C)(CC(=O)COC(=O)NCCN(C)C)CC[C@]4(C)[C@H]3CC[C@]12C [Compound 217]
- half-life [1]: 316 min
- microsomal CLint [2]: 4.39 µL/min/mg
- Human Liver Microsomal Stability no NADPH, % remain 1 h [3]: 99.7%

Structure (SMILES): COC(=O)[C@@H](NCC(=O)O[C@]1(C)CC[C@@]2(C)[C@@H](CC[C@@H]3[C@@H]2CC[C@]2(C)[C@@H](C(C)=O)CC[C@@H]32)C1)C(C)C [Compound 108]
- Comments: production of GNX (ganaxolone) in human liver microsomes (human liver microsomes): GNX not produced in human
- half-life [1]: 12.2 min
- microsomal CLint [2]: 114 µL/min/mg
- Human Liver Microsomal Stability no NADPH, % remain 1 h [3]: 98%

Structure (SMILES): CC(=O)[C@H]1CC[C@H]2[C@@H]3CC[C@H]4C[C@](C)(OC(=O)COC(=O)OC5CNC5)CC[C@]4(C)[C@H]3CC[C@]12C [Compound 222]
- Comments: production of GNX (ganaxolone) in human liver microsomes (human liver microsomes): In human no GNX produced
- half-life [1]: 63.7 min
- microsomal CLint [2]: 21.8 µL/min/mg
- Human Liver Microsomal Stability no NADPH, % remain 1 h [3]: 61%

Structure (SMILES): CC(=O)[C@H]1CC[C@H]2[C@@H]3CC[C@H]4C[C@](C)(OC(=O)CCN5C(=O)CCC5=O)CC[C@]4(C)[C@H]3CC[C@]12C [Compound 415]
- Comments: production of GNX (ganaxolone) in human liver microsomes (human liver microsomes): In human small amount of GNX produced
- half-life [1]: 8.2 min
- microsomal CLint [2]: 169 µL/min/mg
- Human Liver Microsomal Stability no NADPH, % remain 1 h [3]: 99%

Structure (SMILES): CC(=O)[C@H]1CC[C@H]2[C@@H]3CC[C@H]4C[C@](C)(OC(=O)CNC(=O)CNC(=O)[C@@H](N)C(C)C)CC[C@]4(C)[C@H]3CC[C@]12C [Compound 122]
- Comments: production of GNX (ganaxolone) in human liver microsomes (human liver microsomes): In human no GNX produced
- half-life [1]: 345 min
- microsomal CLint [2]: 4.02 µL/min/mg
- Human Liver Microsomal Stability no NADPH, % remain 1 h [3]: 99%

Structure (SMILES): COC(=O)C(C)(C)NCC(=O)O[C@]1(C)CC[C@@]2(C)[C@@H](CC[C@@H]3[C@@H]2CC[C@]2(C)[C@@H](C(C)=O)CC[C@@H]32)C1 [Compound 125]
- half-life [1]: 3.9 min
- microsomal CLint [2]: 354 µL/min/mg
- Human Liver Microsomal Stability no NADPH, % remain 1 h [3]: 1%

Structure (SMILES): CC(=O)[C@H]1CC[C@H]2[C@@H]3CC[C@H]4C[C@](C)(OC(=O)CC(C)(C)C(=O)NCCN(C)C)CC[C@]4(C)[C@H]3CC[C@]12C [Compound 412]
- Comments: production of GNX (ganaxolone) in human liver microsomes (human liver microsomes): In human small amount of GNX produced
- half-life [1]: 273 min
- microsomal CLint [2]: 5.07 µL/min/mg
- Human Liver Microsomal Stability no NADPH, % remain 1 h [3]: 94%

Structure (SMILES): CC(=O)[C@H]1CC[C@H]2[C@@H]3CC[C@H]4C[C@](C)(OC(=O)CC(C)(C)C(=O)O)CC[C@]4(C)[C@H]3CC[C@]12C [Compound 420]
- Comments: production of GNX (ganaxolone) in human liver microsomes (human liver microsomes): In human no GNX produced
- half-life [1]: 445 min
- microsomal CLint [2]: 3.11 µL/min/mg
- Human Liver Microsomal Stability no NADPH, % remain 1 h [3]: 97.4%

Structure (SMILES): CC(=O)[C@H]1CC[C@H]2[C@@H]3CC[C@H]4C[C@](C)(OC(=O)CNCC(C)(C)O)CC[C@]4(C)[C@H]3CC[C@]12C [Compound 140]
- half-life [1]: 39.1 min
- microsomal CLint [2]: 35.5 µL/min/mg
- Human Liver Microsomal Stability no NADPH, % remain 1 h [3]: 99%

Structure (SMILES): CC(=O)[C@H]1CC[C@H]2[C@@H]3CC[C@H]4C[C@](C)(OC(=O)CCC(=O)NCCN(C)C)CC[C@]4(C)[C@H]3CC[C@]12C [Compound 410]
- Comments: production of GNX (ganaxolone) in human liver microsomes (human liver microsomes): In human no GNX produced
- half-life [1]: 439 min
- microsomal CLint [2]: 3.16 µL/min/mg
- Human Liver Microsomal Stability no NADPH, % remain 1 h [3]: 99%

Structure (SMILES): COCCN(CCOC(C)=O)CC(=O)OC(C)(C)C(=O)OCC(=O)O[C@]1(C)CC[C@@]2(C)[C@@H](CC[C@@H]3[C@@H]2CC[C@]2(C)[C@@H](C(C)=O)CC[C@@H]32)C1 [Compound 236]
- half-life (human, microsomes): 3.72 min
- microsomal CLint (human, microsomes): 372 µL/min/mg
- Human Liver Microsomal Stability no NADPH, % remain 1 h (human, microsomes): <1%

Structure (SMILES): CC(=O)[C@H]1CC[C@H]2[C@@H]3CC[C@H]4C[C@](C)(OC(=O)COC(=O)C(C)(C)OC(=O)CN(C)CCCO)CC[C@]4(C)[C@H]3CC[C@]12C [Compound 245]
- half-life [1]: 11.4 min
- microsomal CLint [2]: 122 µL/min/mg
- Human Liver Microsomal Stability no NADPH, % remain 1 h [3]: 69.7%

Structure (SMILES): CC(=O)[C@H]1CC[C@H]2[C@@H]3CC[C@H]4C[C@](C)(OC(=O)CN5CCC[C@H]5C(=O)OCc5ccccc5)CC[C@]4(C)[C@H]3CC[C@]12C [Compound 128]
- Comments: production of GNX (ganaxolone) in human liver microsomes (human liver microsomes): In human no GNX produced
- half-life [1]: 9 min
- microsomal CLint [2]: 153 µL/min/mg
- Human Liver Microsomal Stability no NADPH, % remain 1 h [3]: 20%

Structure (SMILES): CC(=O)[C@H]1CC[C@H]2[C@@H]3CC[C@H]4C[C@](C)(OC(=O)CCCCN)CC[C@]4(C)[C@H]3CC[C@]12C [Compound 418]
- Comments: production of GNX (ganaxolone) in human liver microsomes (human liver microsomes): In human no GNX produced
- half-life [1]: 451 min
- microsomal CLint [2]: 3.08 µL/min/mg
- Human Liver Microsomal Stability no NADPH, % remain 1 h [3]: 99%

Structure (SMILES): CC(=O)[C@H]1CC[C@H]2[C@@H]3CC[C@H]4C[C@](C)(OC(=O)CNCC(=O)O)CC[C@]4(C)[C@H]3CC[C@]12C [Compound 124]
- Comments: production of GNX (ganaxolone) in human liver microsomes (human liver microsomes): In human small amount of GNX produced
- half-life [1]: 532 min
- microsomal CLint [2]: 2.61 µL/min/mg
- Human Liver Microsomal Stability no NADPH, % remain 1 h [3]: 99%

From patent US20250034201A1, “PRODRUGS OF GANAXOLONE” (priority 2022, published 2025)
